Experimental data reported in PubChem BioAssay AID1963980 (Molecular Pharmacology Branch, DTP, NCI, 2024).

System: 475296-252-R-J1-PDC spheroid viability
Assay: Anticancer human tumor 475296-252-R-J1-PDC patient-derived rectal carcinoma cell line growth inhibition [PI3K]
Details: spheroids with HUVEC and MSC; for IC50: curve of first compound; for viability, T/C: stronger effect = lower value; active = viability on the fitted dose curve at most 10% of control; inactive = the rest
Method in brief: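 Spheroid viability read-out. Co-cultures contained the tumor line plus HUVEC and human MSCs. Each agent was paired with a PI3K inhibitor (inavolisib, alpelisib, duvelisib, copanlisib) across half-log dilutions starting at clinical Cmax, or at 10 microM when Cmax was unknown.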
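Also: spheroids exposed to agents for seven days before readout.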

CCCS(=O)(=O)Nc1ccc(F)c(C(=O)c2c[nH]c3ncc(-c4ccc(Cl)cc4)cc23)c1F + CC(Nc1ncnc2nc[nH]c12)c1cc2cccc(Cl)c2c(=O)n1-c1ccccc1
> 10 µM: IC50 (second compound 0.0316 µM) | IC50 (second compound 0.1 µM) | IC50 (second compound 0.316 µM) | IC50 (second compound 1 µM) | IC50 (second compound 3.16 µM) | IC50 (second compound 10 µM)
inactive: viability, T/C (second compound 0.0316 µM, first compound 0.0316 µM) 96.5% | viability, T/C (second compound 0.0316 µM, first compound 0.1 µM) 112% | viability, T/C (second compound 0.0316 µM, first compound 0.316 µM) 103% | viability, T/C (second compound 0.0316 µM, first compound 1 µM) 94.8% | viability, T/C (second compound 0.0316 µM, first compound 3.16 µM) 85.1% | viability, T/C (second compound 0.0316 µM, first compound 10 µM) 110% | viability, T/C (second compound 0.1 µM, first compound 0.0316 µM) 110% | viability, T/C (second compound 0.1 µM, first compound 0.1 µM) 110% | viability, T/C (second compound 0.1 µM, first compound 0.316 µM) 97.3% | viability, T/C (second compound 0.1 µM, first compound 1 µM) 90.6% | viability, T/C (second compound 0.1 µM, first compound 3.16 µM) 107% | viability, T/C (second compound 0.1 µM, first compound 10 µM) 100% | viability, T/C (second compound 0.316 µM, first compound 0.0316 µM) 94.6% | viability, T/C (second compound 0.316 µM, first compound 0.1 µM) 88.6% | viability, T/C (second compound 0.316 µM, first compound 0.316 µM) 99.4% | viability, T/C (second compound 0.316 µM, first compound 1 µM) 101% | viability, T/C (second compound 0.316 µM, first compound 3.16 µM) 90.9% | viability, T/C (second compound 0.316 µM, first compound 10 µM) 105% | viability, T/C (second compound 1 µM, first compound 0.0316 µM) 89.5% | viability, T/C (second compound 1 µM, first compound 0.1 µM) 104% | viability, T/C (second compound 1 µM, first compound 0.316 µM) 96.2% | viability, T/C (second compound 1 µM, first compound 1 µM) 90.6% | viability, T/C (second compound 1 µM, first compound 3.16 µM) 96.7% | viability, T/C (second compound 1 µM, first compound 10 µM) 96.6% | viability, T/C (second compound 3.16 µM, first compound 0.0316 µM) 97% | viability, T/C (second compound 3.16 µM, first compound 0.1 µM) 104% | viability, T/C (second compound 3.16 µM, first compound 0.316 µM) 90% | viability, T/C (second compound 3.16 µM, first compound 1 µM) 100% | viability, T/C (second compound 3.16 µM, first compound 3.16 µM) 87.6% | viability, T/C (second compound 3.16 µM, first compound 10 µM) 87.4% | viability, T/C (second compound 10 µM, first compound 0.0316 µM) 101% | viability, T/C (second compound 10 µM, first compound 0.1 µM) 80.1% | viability, T/C (second compound 10 µM, first compound 0.316 µM) 79.8% | viability, T/C (second compound 10 µM, first compound 1 µM) 97% | viability, T/C (second compound 10 µM, first compound 3.16 µM) 90.3% | viability, T/C (second compound 10 µM, first compound 10 µM) 92.3%
